Data reported in publication PMC8288134, “Synthesis, potential antitumor activity, cell cycle analysis, and multitarget mechanisms of novel hydrazones incorporating a 4-methylsulfonylbenzene scaffold: a molecular docking study” (Journal of Enzyme Inhibition and Medicinal Chemistry, 2021).
Read-outs that look alike come from different tables or passages of the source.

Legend:
HL-60(TB) = assay: cells; type: cell-based, human; conditions: Homo sapiens, HL-60, HL-60(TB); one dose 10 µM; read-out: Growth inhibition percentage (GI%)
EKVX = assay: NCI antitumor screen (SRB); type: cell-based; conditions: Homo sapiens, one dose 10 µM, read-out: Growth inhibition percentage (GI%)
NCI-H522 = assay: NCI antitumor screen (SRB); type: cell-based; conditions: Homo sapiens
HCT-15 = assay: NCI antitumor screen (SRB); type: cell-based; conditions: Homo sapiens, one dose 10 µM, read-out: Growth inhibition percentage (GI%)
KM12 = assay: NCI antitumor screen (SRB); type: cell-based; conditions: Homo sapiens, one dose 10 µM, read-out: Growth inhibition percentage (GI%)
SF-295 [1] = assay: NCI antitumor screen (SRB); type: cell-based; conditions: Homo sapiens, one dose 10 µM, read-out: Growth inhibition percentage (GI%)
SF-539 = assay: NCI antitumor screen (SRB); type: cell-based; conditions: Homo sapiens, one dose 10 µM, read-out: Growth inhibition percentage (GI%)
U251 [2] = assay: NCI antitumor screen (SRB); type: cell-based; conditions: Homo sapiens, U-251, one dose 10 µM, read-out: Growth inhibition percentage (GI%)
MALME-3M [3] = assay: NCI antitumor screen (SRB); type: cell-based; conditions: Homo sapiens, one dose 10 µM, read-out: Growth inhibition percentage (GI%)
SK-MEL-2 = assay: NCI antitumor screen (SRB); type: cell-based; conditions: Homo sapiens
UACC-257 [4] = assay: NCI antitumor screen (SRB); type: cell-based, human; conditions: Homo sapiens; UACC-257; one dose 10 µM; read-out: Growth inhibition percentage (GI%)
IGROV1 = assay: NCI antitumor screen (SRB); type: cell-based; conditions: Homo sapiens, IGROV-1, one dose 10 µM, read-out: Growth inhibition percentage (GI%)
NCI/ADR-RES = assay: NCI antitumor screen (SRB); type: cell-based; conditions: Homo sapiens, one dose 10 µM, read-out: Growth inhibition percentage (GI%)
SK-OV-3 = assay: NCI antitumor screen (SRB); type: cell-based; conditions: Homo sapiens, one dose 10 µM, read-out: Growth inhibition percentage (GI%)
TK-10 = assay: NCI antitumor screen (SRB); type: cell-based; conditions: Homo sapiens, one dose 10 µM, read-out: Growth inhibition percentage (GI%)
HL60 cells = assay: Cell cycle analysis (PI, flow cytometry); type: cell-based, human; conditions: HL60, 10.0 µM, 24 h
Method: Antitumor agents can induce apoptosis by activating signalling pathways, leading to G2/M phase arrest[73]^,[74]. Flow cytometry is used to measure cell growth in different cell cycle phases (pre-G1, G1, S, and G2/M)[73]^,[74]. […]. We used the solvent DMSO as a negative control. Briefly, we incubated HL60 cells with 10 µM compounds 6, 9, 16, and 20 for 24 h. Compounds 6, 9, 16, and 20 interfered with the normal cell cycle of HL60 cells. […] […].
Cell cycle analysis was carried out similar to our previous report using the Leukaemia HL-60 cell line stained with the DNA fluorochrome PI and analysed by FACSCalibur flow cytometer[40]^,[74].
Using a method similar to that of our previous report, cell cycle analysis was carried out using Leukemia HL-60 cell line, stained with the DNA fluorochrome PI, and analyzed by FACSCalibur flow cytometer. Leukemia HL-60 cell was seeded at a density of 2 × 10^5 cells/well and incubated for 24 h in six-well plates. Fetal bovine serum (10%) was added, and the cells were incubated at 37°C in an atmosphere of 5% CO2. The medium was replaced with 1% (v/v) dimethyl sulfoxide (DMSO), containing 10.0 μM of compound 9. […]
Afterward, […]
the samples were analyzed using a FACSCalibur flow cytometer. […]
(AA) to PGH2. […]

[5] = system: leukaemia tumour cell lines; conditions: cited from earlier work; for GI50: read-out: GI50 (subpanel average), reference drugs, ref https://dtp.cancer.gov/dtpstandard/dwindex/index.jsp; for CC50: read-out: LC50 (subpanel average), reference drugs, ref https://dtp.cancer.gov/dtpstandard/dwindex/index.jsp; for TGI (subpanel average): reference drugs, ref https://dtp.cancer.gov/dtpstandard/dwindex/index.jsp
[6] = system: melanoma tumour cell lines; conditions: cited from earlier work; for GI50: read-out: GI50 (subpanel average), reference drugs, ref https://dtp.cancer.gov/dtpstandard/dwindex/index.jsp; for CC50: read-out: LC50 (subpanel average), reference drugs, ref https://dtp.cancer.gov/dtpstandard/dwindex/index.jsp; for TGI (subpanel average): reference drugs, ref https://dtp.cancer.gov/dtpstandard/dwindex/index.jsp
[7] = system: renal cancer tumour cell lines; conditions: cited from earlier work; for GI50: read-out: GI50 (subpanel average), reference drugs, ref https://dtp.cancer.gov/dtpstandard/dwindex/index.jsp; for CC50: read-out: LC50 (subpanel average), reference drugs, ref https://dtp.cancer.gov/dtpstandard/dwindex/index.jsp; for TGI (subpanel average): reference drugs, ref https://dtp.cancer.gov/dtpstandard/dwindex/index.jsp
[8] = system: breast cancer tumour cell lines; conditions: cited from earlier work; for GI50: read-out: GI50 (subpanel average), reference drugs, ref https://dtp.cancer.gov/dtpstandard/dwindex/index.jsp; for CC50: read-out: LC50 (subpanel average), reference drugs, ref https://dtp.cancer.gov/dtpstandard/dwindex/index.jsp; for TGI (subpanel average): reference drugs, ref https://dtp.cancer.gov/dtpstandard/dwindex/index.jsp
NCI-H322M = system: NCI-H322M; design: method as in https://dtp.cancer.gov/dtpstandard/dwindex/index.jsp; conditions: reference drugs, ref https://dtp.cancer.gov/dtpstandard/dwindex/index.jsp; cited from earlier work
NCI-H460 = system: NCI-H460; design: method as in https://dtp.cancer.gov/dtpstandard/dwindex/index.jsp; conditions: reference drugs, ref https://dtp.cancer.gov/dtpstandard/dwindex/index.jsp; cited from earlier work
SW-620 = system: SW-620; design: method as in https://dtp.cancer.gov/dtpstandard/dwindex/index.jsp; conditions: reference drugs, ref https://dtp.cancer.gov/dtpstandard/dwindex/index.jsp; cited from earlier work
SF-268 = system: SF-268; design: method as in https://dtp.cancer.gov/dtpstandard/dwindex/index.jsp; conditions: reference drugs, ref https://dtp.cancer.gov/dtpstandard/dwindex/index.jsp; cited from earlier work
U251 [9] = system: U251; design: method as in https://dtp.cancer.gov/dtpstandard/dwindex/index.jsp; conditions: reference drugs, ref https://dtp.cancer.gov/dtpstandard/dwindex/index.jsp; cited from earlier work
MALME-3M [10] = system: MALME-3M; design: method as in https://dtp.cancer.gov/dtpstandard/dwindex/index.jsp; conditions: reference drugs, ref https://dtp.cancer.gov/dtpstandard/dwindex/index.jsp; cited from earlier work
UACC-257 [11] = system: UACC-257; design: method as in https://dtp.cancer.gov/dtpstandard/dwindex/index.jsp; conditions: reference drugs, ref https://dtp.cancer.gov/dtpstandard/dwindex/index.jsp; cited from earlier work
786-0 = system: 786-0; design: method as in https://dtp.cancer.gov/dtpstandard/dwindex/index.jsp; conditions: reference drugs, ref https://dtp.cancer.gov/dtpstandard/dwindex/index.jsp; cited from earlier work
A498 = system: A498; design: method as in https://dtp.cancer.gov/dtpstandard/dwindex/index.jsp; conditions: reference drugs, ref https://dtp.cancer.gov/dtpstandard/dwindex/index.jsp; cited from earlier work
PC-3 = system: PC-3; design: method as in https://dtp.cancer.gov/dtpstandard/dwindex/index.jsp; conditions: reference drugs, ref https://dtp.cancer.gov/dtpstandard/dwindex/index.jsp; cited from earlier work
SF-295 [12] = system: SF-295; design: method as in https://dtp.cancer.gov/dtpstandard/dwindex/index.jsp; conditions: reference drugs, ref https://dtp.cancer.gov/dtpstandard/dwindex/index.jsp; cited from earlier work
MDA-MB-435 = system: MDA-MB-435; design: method as in https://dtp.cancer.gov/dtpstandard/dwindex/index.jsp; conditions: reference drugs, ref https://dtp.cancer.gov/dtpstandard/dwindex/index.jsp; cited from earlier work

Compound | inhibition at 10 µM (HL-60(TB)) [%] | inhibition at 10 µM (EKVX) [%] | inhibition at 10 µM (HCT-15) [%] | inhibition at 10 µM (KM12) [%] | inhibition at 10 µM (SF-295 [1]) [%] | inhibition at 10 µM (SF-539) [%] | inhibition at 10 µM (U251 [2]) [%] | inhibition at 10 µM (MALME-3M [3]) [%] | inhibition at 10 µM (UACC-257 [4]) [%] | inhibition at 10 µM (IGROV1) [%] | GI50 [5] [µM] | CC50 [5] [µM] | TGI (subpanel average) [5] [µM] | GI50 [6] [µM] | CC50 [6] [µM] | TGI (subpanel average) [6] [µM] | GI50 [7] [µM] | CC50 [7] [µM] | TGI (subpanel average) [7] [µM] | TGI (subpanel average) [8] [µM] | further results
CS(=O)(=O)c1ccc(C(=O)N/N=C/c2ccccc2O)cc1 [Compound 16] | 93.7 | 74.2 | 82 | 65.9 | 62 | 44.7 | 72.2 | 36.5 | 77.4 | 59 | – | – | – | – | – | – | – | – | – | – | inhibition at 10 µM (NCI-H522; NCI-H522, read-out: Growth inhibition percentage (GI%)): 84.9%; inhibition at 10 µM (SK-MEL-2; SK-MEL-2, read-out: Growth inhibition percentage (GI%)): 60%; inhibition at 10 µM (NCI/ADR-RES): 70.1%; inhibition at 10 µM (SK-OV-3): 60.1%; inhibition at 10 µM (TK-10): 54.2%; %G0-G1 (HL60 cells): 39.42%; %G2-M (HL60 cells): 38.09%; %Pre-G1 (HL60 cells): 22.41%; %S (HL60 cells): 22.49%
O=c1[nH]cc(F)c(=O)[nH]1 [Compound 5-Fu, 5-fluorouracil, reference compound] | 52.1 | 41.6 | 73.5 | 59.3 | 30.9 | > 100 | 49.7 | 41.8 | 80.5 | 48.8 | 2.82 | > 100 | 68.37 | 7.83 | 95.4 | 61.57 | 0.93 | > 100 | 46.25 | 68.01 | inhibition at 10 µM (NCI-H522; NCI-H522, one dose 10 µM, read-out: Growth inhibition percentage (GI%)): 42%; inhibition at 10 µM (SK-MEL-2; SK-MEL-2, one dose 10 µM, read-out: Growth inhibition percentage (GI%)): < 10%; inhibition at 10 µM (NCI/ADR-RES): 52.4%; inhibition at 10 µM (SK-OV-3): 22.5%; inhibition at 10 µM (TK-10): 33.1%; GI50 [8]: 6.87 µM; CC50 [8]: > 100 µM
CNC(=O)c1cc(Oc2ccc(NC(=O)Nc3ccc(Cl)c(C(F)(F)F)c3)cc2)ccn1 [Sorafenib, sorafenib] | – | – | – | – | – | – | – | – | – | – | 1.91 | > 100 | 42.12 | 1.87 | 28.6 | 6.29 | 2.86 | 54.8 | 10.86 | 9.35 | GI50 (NCI-H322M): 2.51 µM; GI50 (NCI-H460): 2.51 µM; GI50 (SW-620): 2.51 µM; GI50 (SF-268): 2.51 µM; GI50 (U251 [9]): 1.99 µM; GI50 (MALME-3M [10]): 1.99 µM; GI50 (UACC-257 [11]): 1.99 µM; GI50 (786-0): 3.16 µM; GI50 (A498): 2.51 µM; GI50 (PC-3): 1.99 µM; CC50 [8]: 57.3 µM
Cc1ccc(-c2cc(C(F)(F)F)nn2-c2ccc(S(N)(=O)=O)cc2)cc1 [Celecoxib, celecoxib] | – | – | – | – | – | – | – | – | – | – | 12.3 | 67.1 | 29.27 | 22.5 | 64.3 | 38.49 | 19.9 | 61.2 | 41.19 | 34.89 | GI50 (NCI-H322M): 19.9 µM; GI50 (NCI-H460): 15.8 µM; GI50 (SW-620): 15.8 µM; GI50 (SF-268): 15.8 µM; GI50 (SF-295 [12]): 15.8 µM; GI50 (U251 [9]): 15.8 µM; GI50 (MALME-3M [10]): 19.9 µM; GI50 (MDA-MB-435): 15.8 µM; GI50 (UACC-257 [11]): 19.9 µM; GI50 (786-0): 39.8 µM; GI50 (A498): 15.8 µM; GI50 (PC-3): 12.6 µM; GI50 [8]: 17.5 µM
